This passage reports IC50 results from patent publication US20230357179A1, “RAF KINASE INHIBITORS AND METHODS OF USE THEREOF” (Deciphera Pharmaceuticals, LLC, priority 2021, published 2023).

For one assay, the target named is T1, B-Raf (V600E) kinase (Homo sapiens, UniProt P15056, V600E).
T1 construct: B-Raf (V600E) residues 416-766 with a; GST (N); purchased SignalChem
Put plainly: Biochemical assay for B-Raf (V600E).1 (coupled pyruvate kinase/lactate dehydrogenase). The settings on record: read-out: BRAF V600E.1 IC50. An outline of the steps:
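0.03 nM B-Raf(V600E) phosphorylating 30.1 nM MEK at 1 mM ATP, pH 7.5, coupled to PK/LDH, with NADH oxidation followed at 340 nm for 6 h at 30 °C. Rates taken from the 3-4 h window. IC50 from a four-parameter fit of percent inhibition.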

A further assay deals with H2405 cells. Put plainly: H2405 cell proliferation assay (1), resazurin, 96-well. In kind it is cell-based. The following applies: Homo sapiens, NCI-H2405, inhibition of cell proliferation. The procedure:
H2405 Cell Proliferation Assay (1)
H2405 cells (catalog #CRL-5944) are obtained from the American Type Culture Collect (ATTC, Manassas, VA). Briefly, cells were grown in RPMI 1640 supplemented with 5% characterized fetal bovine serum (Invitrogen, Carlsbad, CA) and 1% Penicillin/Streptomycin/L-Glutamine at 37° C., 5% CO2, and 95% humidity. Cells are expanded until reaching 70-95% confluency at which point they are subcultured or harvested for assay use. A serial dilution of test compound is dispensed into a 96-well black clear bottom plate in triplicate. Three thousand cells are added per well in 200 μL complete growth medium in the 96-well plate. Plates are incubated for 67-72 hours at 37° C., 5% CO2, and 95% humidity. At the end of the incubation, 40 μL of a 440 μM solution of resazurin (Sigma, St. Louis, MO) in PBS is added to each well of the plate and plates are incubated for an additional 5-6 hours at 37° C., 5% CO2, and 95% humidity. Plates are read on a Synergy2 or equivalent reader (Biotek, Winooski VT) using an excitation of 540 nm and an emission of 600 nm. Data is analyzed using Prism software (GraphPad, San Diego, CA) to calculate IC50 values.
On the technique in general: The colour change of resazurin is a common sign of viable cells or microbes.

In another assay the test system is WM3928 cells. Put plainly: WM3928 cell proliferation assay (1), resazurin, 96-well. The settings on record: inhibition of cell proliferation. In kind it is cell-based. As to the method: WM3928 Cell Proliferation Assay (1)
WM3928 cells (#WM3928-01-0001) are obtained from Rockland Immunochemicals Inc (Gilbertsville, PA). Briefly, cells were grown in MCDB 153 medium (Sigma, #M7403, St. Louis, MO) supplemented with 20% Leibovitz's L-15 (ThermoFisher #11415-064, Waltham, MA), 2% heat inactivated fetal bovine serum (ThermoFisher, #A3840001, Waltham, MA), 5 μg/mL Insulin (Bovine Pancreas) (Sigma, #I0516, St. Louis, MO), 1.68 mM Calcium Chloride (Sigma, #C-34006, St. Louis, MO) and 1% Penicillin/Streptomycin/L-Glutamine (ThermoFisher #10378016, Waltham, MA) at 37° C., 5% CO2, and 95% humidity. Cells are expanded until reaching 70-95% confluency at which point they are subcultured or harvested for assay use. A serial dilution of test compound is dispensed into a 96-well black clear bottom plate in triplicate. Three thousand cells are added per well in 200 μL complete growth medium in the 96-well plate. Plates are incubated for 67-72 hours at 37° C., 5% CO2, and 95% humidity. At the end of the incubation, 40 μL of a 440 μM solution of resazurin (Sigma, #199303, St. Louis, MO) in PBS is added to each well of the plate and plates are incubated for an additional 6-7 hours at 37° C., 5% CO2, and 95% humidity. Plates are read on a Synergy2 or equivalent reader (Biotek, Winooski VT) using an excitation of 540 nm and an emission of 600 nm. Data is analyzed using Prism software (GraphPad, San Diego, CA) to calculate IC50 values.

For a further assay, the system named is Miapaca-2 cells. Briefly: MiaPaca-2 cell proliferation assay (1), resazurin, 96-well. In kind it is cell-based. The settings on record: Homo sapiens, MIA PaCa-2, inhibition of cell proliferation. An outline of the steps: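 Three thousand cells per well in DMEM with 10% FBS and 2.5% horse serum exposed to serially diluted compound in triplicate for 67-72 h at 37 °C, 5% CO2. Viability by resazurin (additional 5-6 h), fluorescence ex 540/em 600 nm; IC50 calculated.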

Bounds are passed on as bounds.

T1 sequence (P15056 416-766 V600E): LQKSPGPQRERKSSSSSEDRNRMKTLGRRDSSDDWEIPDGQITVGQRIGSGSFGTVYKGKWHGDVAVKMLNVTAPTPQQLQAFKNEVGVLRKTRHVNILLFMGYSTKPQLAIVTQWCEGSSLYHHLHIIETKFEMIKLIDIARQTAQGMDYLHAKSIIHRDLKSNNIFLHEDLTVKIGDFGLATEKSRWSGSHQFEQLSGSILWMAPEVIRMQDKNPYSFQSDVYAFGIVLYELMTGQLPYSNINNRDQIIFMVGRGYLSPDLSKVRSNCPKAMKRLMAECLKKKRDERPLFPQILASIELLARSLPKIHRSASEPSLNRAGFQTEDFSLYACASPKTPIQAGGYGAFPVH

As usually defined, the IC50 is the concentration needed to halve the response being measured. Consider `Cc1cc(F)c(NC(=O)NCCC(C)(C)F)cc1-c1cc(OCCO)nc(-c2ccnc3[nH]ncc23)c1` [Example 94], for which the IC50 on B-Raf (V600E) kinase was no more than 100 nM; with H2405 cells it was 100 to 500 nM; with WM3928 cells, 100 to 500 nM; in the assay with Miapaca-2 cells it was 1000 to 10000 nM.
Consider `Cc1ncc(NC(=O)NC[C@H](O)C(C)(C)C)cc1-c1ccnc(-c2ccnc(NC(=O)C3CC3)c2)c1` [Example 102], for which the IC50 on B-Raf (V600E) kinase was no more than 100 nM; in the assay on H2405 cells it was 1000 to 10000 nM; with WM3928 cells it was 1000 to 10000 nM; with Miapaca-2 cells it was 1000 to 10000 nM.
Turning to `Cc1cc(F)c(NC(=O)NC2CC3(COC3)C2)cc1-c1cc(OCCO)nc(-c2ccnc3[nH]ncc23)c1` [Example 101], the IC50 on B-Raf (V600E) kinase is no more than 100 nM; in the assay on H2405 cells, 1000 to 10000 nM; in the assay on WM3928 cells it was 1000 to 10000 nM; with Miapaca-2 cells, 1000 to 10000 nM.
As to `Cc1ncc(NC(=O)NCCC(C)(C)C)cc1-c1cc(-c2ccnc(NC(=O)C3CC3)c2)cnn1` [Example 120], the IC50 at B-Raf (V600E) kinase was no more than 100 nM; in the assay on H2405 cells, 1000 to 10000 nM; with WM3928 cells, 1000 to 10000 nM; in the assay on Miapaca-2 cells, 1000 to 10000 nM.
Turning to `Cc1ncc(NC(=O)NCCC2(C)CC2)cc1-c1ccnc(-c2ccnc(NC(=O)C3CC3)c2)n1` [Example 107], the IC50 is no more than 100 nM at B-Raf (V600E) kinase, 100 to 500 nM in the assay with H2405 cells, 100 to 500 nM with WM3928 cells and 1000 to 10000 nM with Miapaca-2 cells.
In the case of `COC(=O)Nc1cc(-c2cc(-c3cc(NC(=O)NCCC(C)(C)C)cnc3C)ccn2)ccn1` [Example 109], the IC50 is no more than 100 nM at B-Raf (V600E) kinase, 1000 to 10000 nM in the assay on H2405 cells, 100 to 500 nM with WM3928 cells and 1000 to 10000 nM in the assay with Miapaca-2 cells.
For the molecule `COC1(CCNC(=O)Nc2cc(-c3cccc(-c4cc(NC(=O)C5CC5)ncn4)c3)c(C)cc2F)CC1` [Example 104], the IC50 at B-Raf (V600E) kinase was no more than 100 nM; with H2405 cells, 100 to 500 nM; in the assay with WM3928 cells, 100 to 500 nM; in the assay on Miapaca-2 cells it was 1000 to 10000 nM.
With `Cc1cc(F)c(NC(=O)NCC23CC(F)(C2)C3)cc1-c1cc(OCCO)nc(-c2ccnc3[nH]ncc23)c1` [Example 111], the IC50 is no more than 100 nM at B-Raf (V600E) kinase, 1000 to 10000 nM with H2405 cells, 1000 to 10000 nM in the assay on WM3928 cells and 1000 to 10000 nM in the assay with Miapaca-2 cells.
In the case of `Cc1ncc(NC(=O)NC2CC(C)(C)C2)cc1-c1cc(OCCO)nc(-c2ccnc(NC(=O)C3CC3)c2)n1` [Example 144], the IC50 is no more than 100 nM at B-Raf (V600E) kinase, 100 to 500 nM with H2405 cells, 500 to 1000 nM with WM3928 cells and 1000 to 10000 nM in the assay with Miapaca-2 cells.
For `Cc1cc(F)c(NC(=O)NCCC(C)(C)F)cc1-c1cc(OCCO)nc(-c2ccnc3[nH]ccc23)c1` [Example 97] the same measures were no more than 100 nM, 500 to 1000 nM, 100 to 500 nM and 1000 to 10000 nM.
In the same order, the values of `COC(=O)Nc1cc(-c2nc(OCCO)cc(-c3cc(NC(=O)NC4CC(C)(C)C4)c(F)cc3C)n2)ccn1` [Example 158] are no more than 100 nM, no more than 100 nM, no more than 100 nM and 1000 to 10000 nM.
In the same order, the values of `COC(=O)Nc1cc(-c2cc(-c3cc(NC(=O)NCCC(C)C)c(F)cc3C)cc(OCCO)n2)ccn1` [Example 115] are no more than 100 nM, 500 to 1000 nM, no more than 100 nM and 1000 to 10000 nM.
Regarding `Cc1cc(F)c(NC(=O)NCCC(C)C)cc1-c1cc(OCCO)nc(-c2ccnc(NC(=O)C3CC3)c2)c1` [Example 106], the IC50 is no more than 100 nM at B-Raf (V600E) kinase, 100 to 500 nM in the assay with H2405 cells, no more than 100 nM with WM3928 cells and 1000 to 10000 nM with Miapaca-2 cells.
As for `Cc1ncc(NC(=O)NCCC2(C)CC2)cc1-c1cc(OCCO)nc(-c2ccnc(NC(=O)C3CC3)c2)c1` [Example 113], the IC50 was no more than 100 nM at B-Raf (V600E) kinase, 100 to 500 nM with H2405 cells, no more than 100 nM in the assay with WM3928 cells and 1000 to 10000 nM in the assay on Miapaca-2 cells.
